Values of other authors in patent US20010028878A1, “In vitro maturation of human oocytes in one day” (priority 1998, published 2001).

System: human oocytes
Settings: presence of insulin in the culture medium; recent research

insulin
effect on the chance for successful pregnancy: negative effect
